The nature of data set [1]: Moisture sorption isotherms. The format is physicochemical. The following applies: 25° C., 4-95% RH (FIG. 4). The procedure: Moisture sorption isotherms were collected in a TA Instrument VTI-SA+ Vapor Sorption Analyzer using approximately 270 mg of sample in a 250 μL ceramic pan. The sample was dried at 30° C. until the loss rate of 0.005 wt %/min was obtained for 10 minutes. The sample was tested at 25° C. and 4, 5, 15, 25, 35, 45, 50, 65, 75, 85, and 95% RH. Equilibration at each RH was reached when the rate of 0.01 wt %/min for 35 minutes was achieved or a maximum of 600 minutes.

Data set [2] deals with idiopathic pulmonary fibrosis. The following applies: patients with IPF; cited from earlier work.
In data set [3] the test system is progressive pulmonary fibrosis. The conditions noted are these: patients with PPF, versus placebo, 52-week study period; cited from earlier work.

Molecules are shown by their SMILES.

For the compound `CCCN(C)C(=O)OCc1c(-c2ccc(O[C@H]3CCC[C@H](C(=O)O)C3)c(C)n2)nnn1C` [Form A], the hygroscopicity entry in data set [1] is listed as “non-hygroscopicity”. With `COC(=O)c1ccc2c(c1)NC(=O)/C2=C(\Nc1ccc(N(C)C(=O)CN2CCN(C)CC2)cc1)c1ccccc1` [nintedanib], the “decline in lung function” value in data set [2] was “significantly reduce the decline in lung function”. The “progression of lung fibrosis (annual rate of decline in FVC)” value in data set [3] is on record as “slower progression of lung fibrosis”. As to `Cc1ccc(=O)n(-c2ccccc2)c1` [pirfenidone], the “decline in lung function” value in data set [2] was “significantly reduce the decline in lung function”.

Source of the values: patent US20240217948A1, “CRYSTALLINE FORMS OF A LPA1 ANTAGONIST” (Bristol-Myers Squibb Company, priority 2022, published 2024).
